Assay [1] concerns the target T1, NBD1 (Homo sapiens, UniProt P13569).
T1 construct: Purified recombinant NBD1 was produced using previously described methods; made in house
Nature of the assay: Aggregation analysis using differential static light scattering (DSLS), thermal stability of NBD1 (ΔTagg). The conditions noted are these: ΔTagg versus DMSO control, NBD1 0.2 mg/ml. The format is binding. The method in brief:
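NBD1 0.2 mg/ml, S200 buffer (50 mM Tris-HCl, 150 mM NaCl, 5 mM MgCl2, 2 mM ATP, 2 mM DTT, pH7.6) + 1% glycerol; cpd in DMSO; oil overlay. Ramp 25→70° C. at 1° C./min, DSLS images every 0.5° C. ΔTagg = Tagg (inflection) − mean DMSO Tagg.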

The target of assay [2] is T2, CFTR (Homo sapiens, UniProt P13569, DEL508-508).
T2 construct: Primary human bronchial epithelial cells from a ΔF508 homozygous CF donor; host or cells: primary human bronchial epithelial cells (CF-HBE), ΔF508 homozygous donor
The assay is described as follows: TECC24 AUC fold over DMSO @10 μM, CFTR-mediated transepithelial chloride transport in CF-HBE cells. In kind it is cell-based. To be noted: test agent AUC divided by DMSO vehicle AUC, primary CF-HBE cells, ΔF508 homozygous donor, 48 hours incubation. In short, it runs like this: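 Value is ratio of test-agent to DMSO AUC of equivalent transepithelial Cl− current, integrated from forskolin (10 μM) stimulation to CFTR inhibitor-172 (20 μM) block, with benzamil 10 μM present. CF-HBE (ΔF508/ΔF508) cultures had 48 h compound exposure at 10 μM, 36.5° C before recording.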

T2 sequence (P13569 with tags, fused parts or gaps DEL508-508): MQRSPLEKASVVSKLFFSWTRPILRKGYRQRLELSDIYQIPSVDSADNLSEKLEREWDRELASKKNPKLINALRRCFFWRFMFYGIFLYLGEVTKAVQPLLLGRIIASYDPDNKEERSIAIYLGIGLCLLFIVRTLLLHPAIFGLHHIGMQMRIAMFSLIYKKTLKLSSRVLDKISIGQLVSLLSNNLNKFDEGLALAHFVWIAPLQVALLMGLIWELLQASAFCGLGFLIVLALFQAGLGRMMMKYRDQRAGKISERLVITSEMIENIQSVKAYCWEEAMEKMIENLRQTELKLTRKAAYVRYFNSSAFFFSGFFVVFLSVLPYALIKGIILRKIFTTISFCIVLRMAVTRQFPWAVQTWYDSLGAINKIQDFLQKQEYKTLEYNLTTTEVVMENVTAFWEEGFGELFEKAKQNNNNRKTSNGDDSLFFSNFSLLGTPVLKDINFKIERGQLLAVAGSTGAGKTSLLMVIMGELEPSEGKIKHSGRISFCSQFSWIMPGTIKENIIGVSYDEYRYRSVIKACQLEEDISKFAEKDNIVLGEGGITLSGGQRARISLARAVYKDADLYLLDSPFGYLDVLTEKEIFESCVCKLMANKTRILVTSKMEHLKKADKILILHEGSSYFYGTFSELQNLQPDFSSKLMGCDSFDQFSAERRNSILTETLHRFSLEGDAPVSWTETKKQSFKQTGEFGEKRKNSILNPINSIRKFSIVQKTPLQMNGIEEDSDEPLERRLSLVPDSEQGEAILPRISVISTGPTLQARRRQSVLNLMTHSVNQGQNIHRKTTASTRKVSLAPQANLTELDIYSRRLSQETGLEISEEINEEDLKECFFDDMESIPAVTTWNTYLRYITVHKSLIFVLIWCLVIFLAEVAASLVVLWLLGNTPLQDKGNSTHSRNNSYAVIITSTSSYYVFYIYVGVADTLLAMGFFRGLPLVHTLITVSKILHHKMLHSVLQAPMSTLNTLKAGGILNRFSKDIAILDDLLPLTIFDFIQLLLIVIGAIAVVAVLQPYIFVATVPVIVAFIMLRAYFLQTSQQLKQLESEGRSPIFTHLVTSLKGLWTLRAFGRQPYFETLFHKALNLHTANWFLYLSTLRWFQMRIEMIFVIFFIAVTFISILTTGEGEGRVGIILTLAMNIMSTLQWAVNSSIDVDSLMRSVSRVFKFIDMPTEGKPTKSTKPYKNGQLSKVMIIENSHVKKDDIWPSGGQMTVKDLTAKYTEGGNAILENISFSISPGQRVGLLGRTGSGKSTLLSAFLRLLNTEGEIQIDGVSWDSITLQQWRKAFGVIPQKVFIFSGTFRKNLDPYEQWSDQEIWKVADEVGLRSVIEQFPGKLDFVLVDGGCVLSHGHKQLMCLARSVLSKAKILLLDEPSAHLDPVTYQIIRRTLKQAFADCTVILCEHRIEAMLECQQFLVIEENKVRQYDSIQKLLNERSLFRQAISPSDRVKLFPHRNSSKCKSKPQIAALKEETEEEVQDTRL
T1 sequence (P13569 423-646 limits assumed): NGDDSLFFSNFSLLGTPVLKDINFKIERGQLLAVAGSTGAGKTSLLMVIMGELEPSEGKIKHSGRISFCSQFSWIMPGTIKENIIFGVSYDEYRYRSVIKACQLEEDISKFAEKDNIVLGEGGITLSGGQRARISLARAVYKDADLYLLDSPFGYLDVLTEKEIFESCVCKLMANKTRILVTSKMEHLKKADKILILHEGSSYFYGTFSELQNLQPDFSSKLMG

As to `Cn1nc2nc1-c1cc(ccc1F)[S+]([O-])c1c(F)cc3[nH]ccc3c1CCS(=O)(=O)CC(C)(C)CCC[C@]2(C)c1cccc(CC(=O)O)c1` (single isomer, unassigned) [Compound 209A], the “DSLS 3D (100 μM ΔT)” value in assay [1] is “B (a value above 5 °C and less than or equal to 10 °C is marked “B”)”. For the same compound, the “TECC (AUC, 10 μM)” value in assay [2] is reported as “A (a TECC value less than 12 is marked “A”)”.
With `Cn1nc2nc1-c1cc(ccn1)[S+]([O-])c1c(F)cc3[nH]ccc3c1CCS(=O)(=O)CC(C)(C)CCC[C@]2(C)c1cccc(CCS(C)(=O)=O)c1` (single isomer, unassigned) [Compound 243A], the “DSLS 3D (100 μM ΔT)” value in assay [1] was “B (a value above 5 °C and less than or equal to 10 °C is marked “B”)”. Further, in assay [2], the “TECC (AUC, 10 μM)” value was “C (a value between 20 and 80 is marked “C”)”.
As for `O=C1CCCS(=O)(=O)CCc2c(c(F)cc3[nH]ccc23)Oc2ccc(F)c(c2)-c2ncc([nH]2)C(c2ccccc2)N1` (single isomer, unassigned) [Compound 81, 22,28-difluoro-12,12-dioxo-6-phenyl-24-oxa-12lambda6-thia-3,7,19,30 tetrazapentacyclo[23.3.1.12,5.015,23.016,20]triaconta-1(29),2,4,15,17,20,22,25,27-nonaen-8-one], the “DSLS 3D (100 μM ΔT)” value in assay [1] was “A (an ΔTagg value less than or equal to 5 °C is marked “A”)”. Also, in assay [2], the “TECC (AUC, 10 μM)” value was “A (a TECC value less than 12 is marked “A”)”.
Regarding `C[C@H](Cc1cccc(C2(C)CCCC(C)(C)CS(=O)(=O)CCc3c(c(F)cc4[nH]ccc34)[S+]([O-])c3ccc(F)c(c3)-c3nc2nn3C)n1)C(=O)O` (single isomer, unassigned) [Compound 181D], in assay [1], the “DSLS 3D (100 μM ΔT)” value was “C (a value greater than 10 °C and less than or equal to 25 °C is marked “C”)”. In assay [2], the “TECC (AUC, 10 μM)” value is given as “A (a TECC value less than 12 is marked “A”)”.
`Cn1nc2nc1-c1cc(ccn1)[S+]([O-])c1c(F)cc3[nH]ccc3c1CCS(=O)(=O)CC(C)(C)CCC[C@]2(C)c1cccc(CCC(=O)O)c1F` (single isomer, unassigned) [Compound 260B]: the “DSLS 3D (100 μM ΔT)” value in assay [1] is “B (a value above 5 °C and less than or equal to 10 °C is marked “B”)”. In addition, in assay [2], the “TECC (AUC, 10 μM)” value is recorded as “A (a TECC value less than 12 is marked “A”)”.
Consider `Cn1nc2nc1-c1cc(ccc1F)Oc1c(F)cc3[nH]ccc3c1CCS(=O)(=O)CC(C)(C)OCCC2(C#N)c1cccc(CC2(C(=O)O)CC2)c1` (single isomer, unassigned) [Compound 123A, 1-[[3-(6-cyano-22,28-difluoro-3,10,10-trimethyl-12,12-dioxo-9,24-dioxa-12λ6-thia-3,4,19,30-tetrazapentacyclo[23.3.1.12,5.015,23.016,20]triaconta-1(29),2(30),4,15,17,20,22,25,27-nonaen-6-yl)phenyl]methyl]cyclopropanecarboxylic Acid], for which, in assay [1], the “DSLS 3D (100 μM ΔT)” value is “A (an ΔTagg value less than or equal to 5 °C is marked “A”)”. The “TECC (AUC, 10 μM)” value in assay [2] is “A (a TECC value less than 12 is marked “A”)”.
`Cn1nc2nc1-c1cc(ccc1F)C(O)c1c(F)cc3[nH]ccc3c1CCS(=O)(=O)CC(C)(C)CCCC2(C)c1cccc(CCC(=O)O)c1` (single isomer, unassigned) [Compound 30A, 3-[3-(22,28-difluoro-24-hydroxy-3,6,10,10-tetramethyl-12,12-dioxo-12lambda6-thia-3,4,19,30-tetrazapentacyclo[23.3.1.12,5.015,23.016,20]triaconta-1(29),2(30),4,15,17,20,22,25,27-nonaen-6-yl)phenyl]propanoic acid]: the “DSLS 3D (100 μM ΔT)” value in assay [1] is “C (a value greater than 10 °C and less than or equal to 25 °C is marked “C”)”. Besides, the “TECC (AUC, 10 μM)” value in assay [2] was “C (a value between 20 and 80 is marked “C”)”.
As to `CC1(C)CCCC(C)(c2cccc(CCC(=O)O)c2)c2coc(n2)-c2cc(ccc2F)Oc2c(F)cc3[nH]ccc3c2CCS(=O)(=O)C1` (centres unmarked) [Compound 44, 3-[3-(22,28-Difluoro-6,10,10-trimethyl-12,12-dioxo-3,24-dioxa-12lambda6-thia-19,30-diazapentacyclo[23.3.1.12,5.015,23.016,20]triaconta-1(29),2(30),4,15,17,20,22,25,27-nonaen-6-yl)phenyl]propanoic Acid], in assay [1], the “DSLS 3D (100 μM ΔT)” value was “C (a value greater than 10 °C and less than or equal to 25 °C is marked “C”)”. Moreover, the “TECC (AUC, 10 μM)” value in assay [2] was “A (a TECC value less than 12 is marked “A”)”.
Turning to `CC(Cc1cccc(C2CCCC(C)(C)CS(=O)(=O)CCc3c(c(F)cc4[nH]ccc34)Oc3ccc(F)c(c3)-c3nc2nn3C)c1)C(=O)O` (centres unmarked) [Compound 114, 3-[3-(22,28-Difluoro-3,10,10-trimethyl-12,12-dioxo-24-oxa-12λ6-thia-3,4,19,30-tetrazapentacyclo[23.3.1.12,5.015,23.016,20]triaconta-1(29),2(30),4,15,17,20,22,25,27-nonaen-6-yl)phenyl]-2-methyl-propanoic Acid], in assay [1], the “DSLS 3D (100 μM ΔT)” value is “C (a value greater than 10 °C and less than or equal to 25 °C is marked “C”)”. The “TECC (AUC, 10 μM)” value in assay [2] is “B (a value between 12-20 is marked “B”)”.
Consider `Cn1cc2nc1-c1cc(ccc1F)Oc1c(F)cc3[nH]ccc3c1CCS(=O)(=O)CC(C)(C)CCCC2(C)c1cccc(CCC(=O)O)c1` (centres unmarked) [Compound 77, 3-[3-(22,28-Difluoro-3,6,10,10-tetramethyl-12,12-dioxo-24-oxa-12λ6-thia-3,19,30-triazapentacyclo[23.3.1.12,5.015,23.016,20]triaconta-1(29),2(30),4,15,17,20,22,25,27-nonaen-6-yl)phenyl]propanoic Acid], for which the “DSLS 3D (100 μM ΔT)” value in assay [1] was “C (a value greater than 10 °C and less than or equal to 25 °C is marked “C”)”. In addition, the “TECC (AUC, 10 μM)” value in assay [2] was “A (a TECC value less than 12 is marked “A”)”.
For the compound `Cn1nc2nc1C(C)(c1cccc(CCC(=O)O)c1)CCCC(C)(C)CS(=O)(=O)CCc1c(c(F)cc3[nH]ccc13)Oc1ccc(F)c-2c1` (single isomer, unassigned) [Compound 55A, 3-[3-(22,28-difluoro-4,6,10,10-tetramethyl-12,12-dioxo-24-oxa-12 lambda6-thia-3,4,19,30-tetrazapentacyclo[23.3.1.12,5.015,23.016,20]triaconta-1(29),2,5(30),15,17,20,22,25,27-nonaen-6yl)phenyl]propanoic Acid], the “DSLS 3D (100 μM ΔT)” value in assay [1] is “C (a value greater than 10 °C and less than or equal to 25 °C is marked “C”)”. Besides, the “TECC (AUC, 10 μM)” value in assay [2] is “A (a TECC value less than 12 is marked “A”)”.
Take `CC(Cc1cccc(C2(CNCC(F)(F)F)CCCC(C)(C)CS(=O)(=O)CCc3c(c(F)cc4[nH]ccc34)Oc3ccc(F)c(c3)-c3nc2nn3C)c1)C(=O)O` (single isomer, unassigned) [Compound 133A, 3-[3-[22,28-difluoro-3,10,10-trimethyl-12,12-dioxo-6-[(2,2,2-trifluoroethylamino)methyl]-24-oxa-12λ6-thia-3,4,19,30-tetrazapentacyclo[23.3.1.12,5.015,23.016,20]triaconta-1(29),2(30),4,15,17,20,22,25,27-nonaen-6-yl]phenyl]-2-methyl-propanoic Acid]: the “DSLS 3D (100 μM ΔT)” value in assay [1] was “C (a value greater than 10 °C and less than or equal to 25 °C is marked “C”)”. Besides, the “TECC (AUC, 10 μM)” value in assay [2] was “C (a value between 20 and 80 is marked “C”)”.
For `C[C@H](Cc1cccc(C2CCCC(C)(C)CS(=O)(=O)CCc3c(c(F)cc4[nH]ccc34)C(=O)c3cccc(c3)-c3ccn2n3)c1)C(=O)O` (stereo partly drawn) [Compound 164, (2R)-3-[3-(22-Fluoro-10,10-dimethyl-12,12,24-trioxo-12λ6-thia-5,19,30-triazapentacyclo[23.3.1.12,5.015,23.016,20]triaconta-1(29),2(30),3,15,17,20,22,25,27-nonaen-6-yl)phenyl]-2-methyl-propanoic acid], the “DSLS 3D (100 μM ΔT)” value in assay [1] is “A (an ΔTagg value less than or equal to 5 °C is marked “A”)”. Also, in assay [2], the “TECC (AUC, 10 μM)” value is recorded as “A (a TECC value less than 12 is marked “A”)”.
In the case of `[2H]C([2H])([2H])C1(c2cccc(CC(C)C(=O)O)c2)CCCC(C([2H])([2H])[2H])(C([2H])([2H])[2H])CS(=O)(=O)CCc2c(c(F)cc3[nH]ccc23)Oc2ccc(F)c(c2)-c2nc1nn2C` (single isomer, unassigned) [Compound 9A, 3-[3-[22,28-difluoro-3-methyl-12,12-dioxo-6,10,10-tris(trideuteriomethyl)-24-oxa-12lambda6-thia-3,4,19,30-tetrazapentacyclo[23.3.1.12,5.015,23.016,20]triaconta-1(29),2(30),4,15,17,20,22,25,27-nonaen-6-yl]phenyl]-2-methyl-propanoic Acid], the “DSLS 3D (100 μM ΔT)” value in assay [1] was “C (a value greater than 10 °C and less than or equal to 25 °C is marked “C”)”. The “TECC (AUC, 10 μM)” value in assay [2] is listed as “A (a TECC value less than 12 is marked “A”)”.
On to `Cn1nc2nc1-c1cc(ccc1F)[S+]([O-])c1c(F)cc3[nH]ccc3c1CCS(=O)(=O)CC(C)(C)CCC[C@]2(C)c1cccc(CCO)c1` (single isomer, unassigned) [Compound 216B], for which the “DSLS 3D (100 μM ΔT)” value in assay [1] is “C (a value greater than 10 °C and less than or equal to 25 °C is marked “C”)”. The “TECC (AUC, 10 μM)” value in assay [2] was “C (a value between 20 and 80 is marked “C”)”.
As to `COCC(Cc1cccc([C@@]2(C)CCCC(C)(C)CS(=O)(=O)CCc3c(c(F)cc4[nH]ccc34)Oc3ccnc(c3)-c3nc2nn3C)c1)C(=O)O` (single isomer, unassigned) [Compound 284], the “DSLS 3D (100 μM ΔT)” value in assay [1] was “C (a value greater than 10 °C and less than or equal to 25 °C is marked “C”)”. In assay [2], the “TECC (AUC, 10 μM)” value was “C (a value between 20 and 80 is marked “C”)”.

Values taken from US12649750B2, “Macrocyclic compounds, compositions, and methods of using thereof” (Sionna Therapeutics Inc., priority 2022, dated 2026).
